This is an account of results in ChEMBL document CHEMBL2331282, “9-[2-(R)-(Phosphonomethoxy)propyl]-2,6-diaminopurine (R)-PMPDAP and its prodrugs: optimized preparation, including identification of by-products formed, and antiviral evaluation in vitro” (Bioorg Med Chem, 2013).

Some results are limits rather than exact numbers.

This test has as its system Vaccinia virus. Description: Antiviral activity against Vaccinia virus infected in human HEL cells assessed as reduction of virus-induced cytopathogenicity. The test is classed as functional, organism-based. Conditions: Orthopoxvirus vaccinia.
For the compound `C[C@@H](O)CNc1nc(N)c2ncn(C[C@@H](C)O)c2n1`, the half-maximal effective concentration (EC50) is above 100 µg/mL.
As for `C[C@@H](O)CNc1nc(N)nc2c1ncn2C[C@@H](C)O`, the figure is above 100 µg/mL.
On to `C[C@H](Cn1cnc2c(NCP(=O)(O)O)nc(N)nc21)OCP(=O)(O)O`, for which the EC50 is above 100 µg/mL.

For orientation: EC50 means the midpoint of the concentration-response curve.
